Consider two compounds from US9512118B2, “Crystal of fused heterocyclic compound” (TAKEDA PHARMACEUTICAL COMPANY LIMITED, priority 2011, dated 2016).

In brackets after ≈: the same amount, converted by molar mass. Read-outs that look alike come from different tables or passages of the source.

A word on the solubility: it is the dissolved amount per volume that the medium holds.

The nature of data set [1]: Study of crystallization from various solvents (solubility at 55° C. and crystal form obtained). The format is physicochemical. To be noted: for solubility: 55 °C, organic solvent or mixture, thermodynamic from solid; for crystal form: dissolved at 55° C., cooled to 0-5° C., stirred 8 hr. As for the experimental part:
This solution was filtered through a filter with 0.22 μm pore size, and cooled to 0-5° C. with stirring. The mixture was stirred for 8 hr under cooling at 0-5° C.

The conditions of data set [2]: room temperature.
Text: After stirring for one week, and after stirring for 2 weeks, the crystals of 1-ethyl-7-methyl-3-{4-[(3-methyl-3H-imidazo[4,5-b]pyridin-2-yl)oxy]phenyl}-1,3-dihydro-2H-imidazo[4,5-b]pyridin-2-one formed were collected by filtration, and the crystal form of the crystalline products was confirmed.
[3] abbreviates: 80° C., 1 week, sealed glass bottle.
[4] abbreviates: 80° C., 2 weeks, sealed glass bottle.

On to `CCn1c(=O)n(-c2ccc(Oc3nc4cccnc4n3C)cc2)c2nccc(C)c21` [Form A, 1-ethyl-7-methyl-3-{4-[(3-methyl-3H-imidazo[4,5-b]pyridin-2-yl)oxy]phenyl}-1,3-dihydro-2H-imidazo[4,5-b]pyridin-2-one], for which the solubility in data set [1] (solvent 2-propanol) was < 2700 µg/mL; in data set [1] (solvent acetone) it was 6500 µg/mL (≈ 16.2 mM); in data set [1] (solvent acetonitrile), 8100 µg/mL (≈ 20.2 mM); in data set [1] (solvent chloroform) it was > 200000 µg/mL; in data set [1] (solvent ethanol), 2600 µg/mL (≈ 6.49 mM); in data set [1] (solvent ethyl acetate), 3400 µg/mL (≈ 8.49 mM). The solubility in data set [1] (solvent methanol) is 5600 µg/mL (≈ 14 mM); in data set [1] (solvent methylethylketone) it was 6800 µg/mL (≈ 17 mM); in data set [1] (solvent tetrahydrofuran), 26000 µg/mL (≈ 64.9 mM); in data set [1] (solvent toluene), 5200 µg/mL (≈ 13 mM); in data set [1] (solvent trifluoroethanol), > 200000 µg/mL. In addition, the crystal form entry in data set [1] (crystallized from 2-propanol) was “Form A”; in data set [1] (crystallized from acetone), “Form A”; in data set [1] (crystallized from acetonitrile), “Form B”; in data set [1] (crystallized from chloroform), “Form A”; in data set [1] (crystallized from ethanol) it was “Form A”; in data set [1] (crystallized from ethyl acetate), “Form A”. The crystal form entry in data set [1] (crystallized from methanol) was “Form A”; in data set [1] (crystallized from methylethylketone), “Form A”; in data set [1] (crystallized from tetrahydrofuran), “Form A”; in data set [1] (crystallized from toluene) it was “Form G”; in data set [1] (crystallized from trifluoroethanol), “Form D”. The “crystal form 1 week later” value in data set [2] (suspended in 1-butanol) was “Form A”; in data set [2] (suspended in acetone), “Form G”; in data set [2] (suspended in ethyl acetate), “Form A + Form G”; in data set [2] (suspended in isopropyl alcohol) it was “Form A”; in data set [2] (suspended in methanol) it was “Form G”; in data set [2] (suspended in methylethylketone), “Form G”. For the same compound, the “crystal form 1 week later” value in data set [2] (suspended in tetrahydrofuran) and in data set [2] (suspended in toluene) was “Form G” in each case. Further, the “crystal form 2 weeks later” value was “Form A” in data set [2] (suspended in 1-butanol); “Form G” in data set [2] (suspended in acetone); “Form G” in data set [2] (suspended in ethyl acetate); “Form A” in data set [2] (suspended in isopropyl alcohol); “Form G” in data set [2] (suspended in methanol); “Form G” in data set [2] (suspended in methylethylketone). The “crystal form 2 weeks later” value in data set [2] (suspended in tetrahydrofuran) and in data set [2] (suspended in toluene) was “Form G” in each case.

Regarding `CCn1c(=O)n(-c2ccc(Oc3nc4cccnc4n3C)cc2)c2nccc(C)c21` [Form G, 1-ethyl-7-methyl-3-{4-[(3-methyl-3H-imidazo[4,5-b]pyridin-2-yl)oxy]phenyl}-1,3-dihydro-2H-imidazo[4,5-b]pyridin-2-one], under setting [3], the appearance result is “no change”, the “area percentage (%) of HPLC peak area of main form” value (“area percentage (%)” below) stood at 99.7% and the crystal form entry is on record as “Form G”. Under setting [4], the appearance entry is on record as “no change”, the “area percentage (%)” value is reported as 99.6% and the crystal form entry is “Form G”. Further, for the setting “prestorage”, the appearance result is recorded as “white crystalline”, the “area percentage (%)” value was found to be 99.7% and the crystal form result was “Form G”.
